Experimental findings from patent publication US4361573A, “α,α-Diaryl-β-(tert-amino)-propanols and diuretic pharmaceutical compositions containing them” (Temmler AG, priority 1974, dated 1982) are described below.

Like-named read-outs stand apart in the source and are kept apart here. Where only a bound is given, the exact number is not on record here.

Data set [1] is described as follows: saluretic efficiency test in rats: elimination of water, sodium, chloride and potassium in 6 h urine after oral dosing. To be noted: rats, oral; for change in vivo at 40 µmol/kg / change in vivo at 80 µmol/kg: Rattus norvegicus. The class given is in vivo. How it is done: In order to test the saluretic efficiency of the compounds of the invention rats having a weight of 150 to 200 g were used. The animals were kept without food, but not without drinking water, for 15 hours before the beginning of the test. The test substances were administered to groups of four rats, of substantially equal weight, with a rigid stomach probe in a 1% methyl cellulose slime. The dose required per 100 g animal (unit dosage in μmol/kg body weight) was contained in one ml. Following the administration of the substance the rats were given 5 ml 0.9% sodium chloride solution per 100 g body weight p.o. and placed in a diuresis funnel after manually emptying the bladder. Urine was collected for 6 hours in an airconditioned chamber at 24°±1° C. and a relative air humidity of 50±5%. The diuretic effect of a particular dose was tested on at least two, but more frequently however on four to eight groups of rats. Two sodium chloride controls were also used for each test day.
At the end of the collecting periods the volumes of urine discharged per group were noted and the pH value and also the content of sodium, potassium (flame-photometrically) and chloride (measured argentometrically with the determination of the end point potentiometrically) were determined.
From the analysis results the quantities of Na^+, K^+ and Cl^- eliminated were calculated in […] body weight, and the values thus obtained compared with those of the control animals.
Means values and twice the standard deviation were calculated from the data for the sodium chloride controls, in order to determine the normal range. Then, for the values found with the test substances, the percentage variations from the average in respect of these parameters were calculated and tabulated. In this connection, with the results given in Table 1, the upper limit of the normal range, which is defined as the mean value plus twice the standard deviation, was selected as the reference quantity for the variations. In this way relevant hyper-eliminations could clearly be recognised.
In Table 2, the mean percentage variations in potassium elimination after administration of the compounds in accordance with the invention are compared with the mean value of the potassium elimination in the case of the sodium chloride controls. At the same time the […] ratio is given which provides conclusive evidence of the effective saluretic property. The larger this quotient is, then the more sodium than potassium is eliminated in proportion.

Data set [2] in a line: comparison of toxicity in mice: oral LD50 by the Lichtfiel & Wilcoxon method. To be noted: observation period 7 days, 95% confidence limit in brackets. The class given is in vivo. The text has this:
In Table 3 the mean lethal doses for mice, administered orally (LD50 determination by the […] & WILCOXON method - J.Pharmacol. Exp. Ther. 96,98 (1949)) are compared.

The mark [3] stands for this setting: 6 h, 40 μmol/kg body wt., relative to mean K+ elimination of the controls, read-out: Mean percentage variation in the elimination of potassium.
The mark [4] stands for this setting: 6 h, 80 μmol/kg body wt., relative to mean K+ elimination of the controls, read-out: Mean percentage variation in the elimination of potassium.
[5] abbreviates: 40 μmol/kg body wt., deviation from control mean plus twice the standard deviation, 6 h urine, read-out: Mean percentage variation in the elimination of Chloride.
Setting [6] is: 40 μmol/kg body wt., deviation from control mean plus twice the standard deviation, 6 h urine, read-out: Mean percentage variation in the elimination of H2O.
Where [7] appears, read: 40 μmol/kg body wt., deviation from control mean plus twice the standard deviation, 6 h urine, read-out: Mean percentage variation in the elimination of Sodium.
The mark [8] stands for this setting: 80 μmol/kg body wt., deviation from control mean plus twice the standard deviation, 6 h urine, read-out: Mean percentage variation in the elimination of Chloride.
The mark [9] stands for this setting: 80 μmol/kg body wt., deviation from control mean plus twice the standard deviation, 6 h urine, read-out: Mean percentage variation in the elimination of H2O.
[10] abbreviates: 80 μmol/kg body wt., deviation from control mean plus twice the standard deviation, 6 h urine, read-out: Mean percentage variation in the elimination of Sodium.
Where [11] appears, read: 40 μmol/kg body wt., deviation from control mean plus twice the standard deviation, 6 h urine.
[12] abbreviates: 80 μmol/kg body wt., deviation from control mean plus twice the standard deviation, 6 h urine.

`COc1c(C)cc(C(O)(c2cc(C(C)C)c(OC)c(C(C)C)c2)C(C)N2CCCCC2)cc1C` (centres unmarked) [T 2266, 1-(4'-methoxy-3',5'-diisopropylphenyl)-1-(4"-methoxy-3",5"-dimethylphenyl)-2-piperidinopropan-1-ol]: the change in vivo at 40 µmol/kg is -2% in data set [1] (setting [3]), -13.2% in data set [1] (setting [5]), -12.9% in data set [1] (setting [6]) and -7.7% in data set [1] (setting [7]). The change in vivo at 80 µmol/kg was 4% in data set [1] (setting [4]), 12.2% in data set [1] (setting [8]), 19.7% in data set [1] (setting [9]) and 19.4% in data set [1] (setting [10]). The “Quotient Na/K” value in data set [1] (40 μmol/kg body wt.) turned out to be 5.59; in data set [1] (80 μmol/kg body wt.), 6.81. In addition, in data set [2] (mouse, in vivo, read-out: LD50), the LD50 (commonly the dose expected to kill half of the subjects tested) was over 3200 mg/kg.

As for `COc1ccc(C(C)(C)C)cc1C(O)(c1ccccc1)C(C)N1CCCCC1` (centres unmarked) [T 2259, 1-(2'-methoxy-5'-tertiary-butylphenyl)-1-phenyl-2-piperidino-propan-1-ol], the change in vivo at 40 µmol/kg in data set [1] (setting [3]) was 19.4%; in data set [1] (setting [5]) it was 94%; in data set [1] (setting [6]) it was 46.5%; in data set [1] (setting [7]), 28.7%. Further, the change in vivo at 80 µmol/kg is 38.8% in data set [1] (setting [4]), 110% in data set [1] (setting [8]), 76.6% in data set [1] (setting [9]) and 59.8% in data set [1] (setting [10]). Further, the “Quotient Na/K” value in data set [1] (40 μmol/kg body wt.) came to 6.40; in data set [1] (80 μmol/kg body wt.), 6.84. The LD50 in data set [2] (mouse, in vivo, read-out: LD50) was 560 mg/kg.

In the case of `C=CCc1cc2c(cc1C(O)(c1ccc(OC)cc1)C(C)N1CCCCC1)OCO2` (centres unmarked) [T 2378, 1-(3',4'-methylenedioxy-6'-allylphenyl)-1-(4"-methoxyphenyl)-2-piperidino-propane-1-ol], the change in vivo at 40 µmol/kg was 11.2% in data set [1] (setting [3]), -5.6% in data set [1] (setting [5]), 6.7% in data set [1] (setting [6]) and 6.7% in data set [1] (setting [7]). For the same molecule, the change in vivo at 80 µmol/kg in data set [1] (setting [4]) was 32.7%; in data set [1] (setting [8]), -20.4%; in data set [1] (setting [9]), 39.6%; in data set [1] (setting [10]), 45%. In addition, the “Quotient Na/K” value in data set [1] (40 μmol/kg body wt.) turned out to be 5.70; in data set [1] (80 μmol/kg body wt.), 6.49. Moreover, the LD50 in data set [2] (mouse, in vivo, read-out: LD50) is 1600 mg/kg.

For `Cc1c(C(O)(c2ccccc2)C(C)N2CCCCC2)cc2c(c1C)OCCC2` (centres unmarked) [T 2129, 1-(7',8'-dimethylchromanyl-(6'))-1-phenyl-2-piperidino-propan-1-ol], the change in vivo at 40 µmol/kg in data set [1] (setting [3]) was determined as 12.3%; in data set [1] (setting [5]), 12.4%; in data set [1] (setting [6]), 23.9%; in data set [1] (setting [7]) it was 32.6%. Also, the change in vivo at 80 µmol/kg stood at 35.7% in data set [1] (setting [4]), 22% in data set [1] (setting [8]), 21.3% in data set [1] (setting [9]) and 19.4% in data set [1] (setting [10]). Besides, the “Quotient Na/K” value in data set [1] (40 μmol/kg body wt.) is given as 7.02; in data set [1] (80 μmol/kg body wt.), 5.23. Further, in data set [2] (mouse, in vivo, read-out: LD50), the median lethal dose (LD50) is over 3200 mg/kg.

`COc1cc(C)c(C(O)(c2ccccc2)C(C)N2CCCCC2)cc1C(C)C` (centres unmarked) [T 1523, 1-(4'-methoxy-2'-methyl-5'-isopropylphenyl)-1-phenyl-2-piperidino-propan-1-ol]: the change in vivo at 40 µmol/kg in data set [1] (setting [3]) was 25.5%; in data set [1] (setting [5]), -5.1%; in data set [1] (setting [6]) it was 28.9%; in data set [1] (setting [7]), 13.1%. Further, the change in vivo at 80 µmol/kg in data set [1] (setting [4]) came out at 13.3%; in data set [1] (setting [8]), 14.2%; in data set [1] (setting [9]), 39.6%; in data set [1] (setting [10]) it was 28.2%. Further, the “Quotient Na/K” value worked out at 5.35 in data set [1] (40 μmol/kg body wt.) and 6.72 in data set [1] (80 μmol/kg body wt.). In addition, the LD50 in data set [2] (mouse, in vivo, read-out: LD50) was over 3200 mg/kg.

In the case of `CCOc1ccc(C(O)(c2cc(C(C)C)c(OC)c(C(C)C)c2)C(C)N2CCCCC2)cc1` (centres unmarked) [T 2258, 1-(4'-methoxy-3',5'-diisopropylphenyl)-1-(4"-ethoxyphenyl)-2-piperidino-propan-1-ol], the change in vivo at 40 µmol/kg worked out at 19.4% in data set [1] (setting [3]), 12.8% in data set [1] (setting [5]), 28.1% in data set [1] (setting [6]) and 22.9% in data set [1] (setting [7]). The change in vivo at 80 µmol/kg in data set [1] (setting [4]) was 1%; in data set [1] (setting [8]) it was 17.3%; in data set [1] (setting [9]), 32.3%; in data set [1] (setting [10]) it was 24.6%. In addition, the “Quotient Na/K” value in data set [1] (40 μmol/kg body wt.) was 6.11; in data set [1] (80 μmol/kg body wt.), 7.32. Also, the 50% lethal dose (LD50) in data set [2] (mouse, in vivo, read-out: LD50) was over 4500 mg/kg.

“1-(2'-methoxy-3'-methyl-5'-tertiary-butylphenyl)-1-(2"-methoxy-4"-hydroxyphenyl- (or 2"-hydroxy-4"-methoxyphenyl)-2-piperidino-propan-1-ol [T 2458]”: the “Quotient Na/K” value was found to be 5.60 in data set [1] (40 μmol/kg body wt.) and 8.06 in data set [1] (80 μmol/kg body wt.). Besides, the “Mean percentage variation in the elimination of Chloride” value in data set [1] (setting [11]) was 16.9%; in data set [1] (setting [12]), 59.0%. In addition, the “Mean percentage variation in the elimination of H2O” value turned out to be 30.9% in data set [1] (setting [11]) and 83.8% in data set [1] (setting [12]). Further, the entries for the “Mean percentage variation in the elimination of Sodium” value in data set [1] (setting [11]) and in data set [1] (setting [12]) were 40.4% and 84.2%, respectively. Further, the “Mean percentage variation in the elimination of potassium” value came to 49.0% in data set [1] (40 μmol/kg body wt., relative to mean K+ elimination of the controls) and 37.7% in data set [1] (80 μmol/kg body wt., relative to mean K+ elimination of the controls). The molecule further had a 50% lethal dose (LD50) in data set [2] of 3200 mg/kg.

For the molecule `COc1ccc(C(O)(c2cc(C(C)(C)C)cc(C)c2OC)C(C)N2CCCCC2)cc1OC` (centres unmarked) [T 2464, 1-(2'-methoxy-3'-methyl-5'-tertiary-butylphenyl)-1-(3",4"-dimethoxyphenyl)-2-piperidinopropan-1-ol], the change in vivo at 40 µmol/kg in data set [1] (setting [3]) is 9.2%; in data set [1] (setting [5]), 30.4%; in data set [1] (setting [6]), 49.8%; in data set [1] (setting [7]), 64.4%. The change in vivo at 80 µmol/kg in data set [1] (setting [4]) is -1%; in data set [1] (setting [8]), 38.3%; in data set [1] (setting [9]), 65.9%; in data set [1] (setting [10]), 79%. The “Quotient Na/K” value was found to be 8.94 in data set [1] (40 μmol/kg body wt.) and 10.74 in data set [1] (80 μmol/kg body wt.). The LD50 in data set [2] (mouse, in vivo, read-out: LD50) was over 4550 mg/kg.

Regarding `COc1c(C)cc(C(C)(C)C)cc1C(O)(c1ccccc1)C(C)N1CCCCC1` (centres unmarked) [T 1857, 1-(2'-methoxy-3'-methyl-5'-tert-butylphenyl)-1-phenyl-2-piperidino-propan-1-ol], the change in vivo at 40 µmol/kg in data set [1] (setting [3]) came out at 30.6%; in data set [1] (setting [5]), 32.9%; in data set [1] (setting [6]) it was 52%; in data set [1] (setting [7]), 54.8%. Besides, the change in vivo at 80 µmol/kg in data set [1] (setting [4]) was determined as 29.6%; in data set [1] (setting [8]), 36%; in data set [1] (setting [9]), 56.5%; in data set [1] (setting [10]), 54.6%. The “Quotient Na/K” value in data set [1] (40 μmol/kg body wt.) was determined as 7.04; in data set [1] (80 μmol/kg body wt.) it was 7.09. For the same molecule, the LD50 in data set [2] (mouse, in vivo, read-out: LD50) worked out at 3820 mg/kg.

Regarding `CCOc1c(C(C)C)cc(C(O)(c2ccc(OC)cc2)C(C)N2CCCCC2)cc1C(C)C` (centres unmarked) [T 2310], the change in vivo at 40 µmol/kg worked out at 14.3% in data set [1] (setting [3]), 8.9% in data set [1] (setting [5]), 41.3% in data set [1] (setting [6]) and 27.3% in data set [1] (setting [7]). Also, the change in vivo at 80 µmol/kg is -2% in data set [1] (setting [4]), 36.3% in data set [1] (setting [8]), 67.9% in data set [1] (setting [9]) and 42.3% in data set [1] (setting [10]). The “Quotient Na/K” value is reported as 6.62 in data set [1] (40 μmol/kg body wt.) and 8.64 in data set [1] (80 μmol/kg body wt.). Further, in data set [2] (mouse, in vivo, read-out: LD50), the LD50 is 520 mg/kg.
